Reference: patent publication US6673768B1, “Transgenic animal models for cardiac hypertrophy and methods of use thereof (treating)” (Board of Regents, The University of Texas System, priority 1997, dated 2004)

What was measured:
[1] = system: tetracycline-controlled transactivator (tTA); assay: tTA-dependent luciferase target gene expression in primary rat cardiomyocytes; assay type: cell-based
Protocol: Cardiomyocytes were co-transfected with tTA expression plasmid pUHD15-1 and either a tTA-dependent luciferase construct pUHC13-3 or empty vector as control. 16 hours after transfection, cells were incubated in either medium without doxcycline (DOX) or medium with doxcycline. […] Open circles, empty vector, no DOX; filled circles, empty vector, plus DOX; open triangles, pUHC 13-3, no DOX; filled triangles, pUHC13-3, plus DOX. FIG. 11B is a bar graph depicting the ability of tTA to stimulate transcription of the target gene and the inhibitory effect of doxcycline 12 hours after transfection.
Tetracycline-controlled transactivator (tTA) expression plasmid pUHD15-1 encodes chimeric protein tTA under the control of the human cytomegalovirus (CMV) promoter and enhancer. tTA consists of amino acid residues 1-207 from the tetR protein and residues 363-490 from VP16 (Gossen and Bujard (1992) Proc. Natl. Acad. Sci. USA 89:5547-5551.
Plasmid pUHD10-3 contains a chimeric tet operon/CMV minimal promoter upstream of multiple cloning sites (Bujard, 1996). pUHC13-3 is a firefly luciferase reporter gene expression plasmid driven by the chimeric tet operon/CMV minimal promoter (Gossen and Bujard (1992).
The firefly luciferase gene as a reporter gene was under control of the chimeric tet operon/CMV minimal promoter in pUHC13-3. Transient transfections were carried out as described in Example 3. […]

ANF promoter = assay: ANF promoter-reporter (luciferase) activity in transfected cardiomyocytes exposed to agonists; assay type: cell-based, rat
Protocol: (§1) FIG. 10 presents data showing the effects of adrenoceptor agonists on promoter-reporter activities for ANF, skeletal a-actin and cardiac a-actin, and a time course of effects of DOB on ANF message levels. FIGS. 10A, B, and C are bar graphs showing luciferase reporter levels after transfection of ANF, skeletal α-actin, and cardiac a-actin, respectively, into ventricular myocardial cells, and treatment, 24 hours after transfection, with PE (100 μM), DOB (10 μM), or TGF-β1 (1 ng/ml). Values are corrected for transfection efficiency and reported as the mean±SD from at least three experiments. FIG. 10D. Ventricular myocardial cells were switched to serum-free medium. DOB was added to the medium at various time points. “Control” represents cells treated with the DOB vehicle. 24 hours after incubation, total RNA was extracted and analyzed by Northern blot. Results are representative of n=3 or greater for each time point.
Transient transfection. It was necessary to culture the isolated cardiomyocytes in serum-free medium to eliminate effects on gene expression mediated through serum response elements. Primary myocardial cultures were first washed with serum-free growth medium and then maintained in serum-free Medium 199 supplemented with Nutridoma HU (Boehringer Mannheim Corporation, Indianapolis, Ind.) which contained human serum albumin, bovine insulin and human transferrin. Transfection were carried out by using a liposome-based transfecting agent, Lipofectamine (Life Technologies, Grand Island, N.Y.). The procedures used for transient transfection were followed as the manufacturer's instructions. The optimal values including DNA concentration, lipofectamine concentration, and time length for tansfection were determined prior to experiments carried out in this study. Briefly, for each transfection, 2 μg DNA and 20 μg lipofectamine were diluted into separate vials containing 300 μl serum-free nutridoma supplemented medium. The two solutions were then combined and incubated at room temperature for 15-45 minutes to allow DNA-liposome complexes to form. For each transfection, 2.4 ml of serum-free nutridoma supplemented medium were added to the tube containing the DNA-liposome complexes and the diluted mixture was overlaid onto the adherent cardiomyocytes that had been rinsed once with 2 ml of serum-free medium in a 60-mm tissue culture plate. The cell cultures were incubated at 37° C. in a C02 incubator containing 5% CO2 for 24 hours, at which time various test compounds were added. Promoter activities from cell extracts were assayed within 48 hours following the start of transfection.
For α1-adrenergic stimulation, 100 μM PE (Sigma, St. Louis, Mo.) was added to the cells. DOB (Gensia Laboratories, Ltd., Irving, Calif.), a selective β1-adrenergic agonist, was added at a concentration of 10 μM. To correct for variation in transfection efficiencies, pβGal-Control was used as an internal control. Chemiluminescent β-galactosidase activity was assayed by using an aliquot of the same cell lysates collected for the luciferase assay and measured in the same luminometer as described below.
Firefly luciferase assay. The firefly luciferase assay is based upon a commercial (Promega, Madison, Wis.) long term “glow” type of bioluminescence assay. Briefly, activation of luciferin results in the formation of an enzyme-bound luciferyl adenylate (luciferyl-AMP). […]

cardiac α-actin promoter = assay: Cardiac α-actin promoter-reporter (luciferase) activity in transfected cardiomyocytes exposed to agonists; assay type: cell-based, rat; settings: for induction of cardiac α-actin promoter-reporter activity over control cells: PE 100 μM, TGF-β1 1 ng/ml
Protocol: as §1
Transient transfection. It was necessary to culture the isolated cardiomyocytes in serum-free medium to eliminate effects on gene expression mediated through serum response elements. Primary myocardial cultures were first washed with serum-free growth medium and then maintained in serum-free Medium 199 supplemented with Nutridoma HU (Boehringer Mannheim Corporation, Indianapolis, Ind.) which contained human serum albumin, bovine insulin and human transferrin. Transfection were carried out by using a liposome-based transfecting agent, Lipofectamine (Life Technologies, Grand Island, N.Y.). The procedures used for transient transfection were followed as the manufacturer's instructions. The optimal values including DNA concentration, lipofectamine concentration, and time length for tansfection were determined prior to experiments carried out in this study. […]
(§2) For α1-adrenergic stimulation, 100 μM PE (Sigma, St. Louis, Mo.) was added to the cells. […] Chemiluminescent β-galactosidase activity was assayed by using an aliquot of the same cell lysates collected for the luciferase assay and measured in the same luminometer as described below. […]

CaM kinase II = assay: Autonomous CaM kinase II activity in neonatal rat heart tissue slices; assay type: biochemical; settings: for CaMKII autonomous activation, increase over unstimulated heart tissues: 30 seconds after treatment, DOB 10 μM, ISO 100 μM
Protocol: FIG. 9 is a bar graph depicting stimulation of CaMKII activity by b1-adrenergic receptor in neonate rat heart tissue. Neonatal (1-4 day old) heart tissue slices were isolated and treated with isoproterenol (ISO, 100 μM), dolbutamine (DOB, 10 μM), or vehicle alone (control). Propanolol (PROP, 20 μM) was added 2 minutes before agonists were added. After 30 seconds of treatment, autonomous CaMKII activity was assayed. Data are shown as percentage of the ratio of calcium independent activity divided by total activity and represented as the mean±SD from at least three experiments.
Determination of autonomous CaM kinase II activity. CaM kinase II autonomous activity was determined in rat heart tissue homogenates using the synthetic peptide substrate, autocamtide-2 (KKALRRQETVDAL) (Mar et al. (1990) Mol. Cell. Biol. 10:4271-4283; and Farrance et al. (1992) J. Biol. Chem. 267:17234-17240) as exogenous substrate. […] Autonomous CaM kinase II activity was assayed by the phosphorylation of autocamtide-2 in the absence of Ca^2+/calmodulin and expressed as a proportion of activity obtained in the presence of these cofactors. Tissue slices were incubated in the presence or absence of various drug compounds for required time. At termination of the incubation the tissue slices were homogenized in ice-cold buffer (20 mM Tris-HCl, pH 7.5, 0.5 mM EGTA, 1.0 mM EDTA, 2.0 mM dithiothreitol, 10 mM sodium pyrophosphate, 0.4 mM ammonium molybdate, […]) by sonication. Supernatant were cleared by centrifugation (12,000×g, 2 minutes) and then assayed in a reaction mixture containing 50 mM PIPES (pH 7.0), 10 mM MgCl2 0.1 mg/ml bovine serum albumin, […], 20 mM [γ-^32P] […] Endogenous protein was sedimented by centrifugation and supernatants containing autocamtide-2 were spotted onto p81 phosphocellulose strips, washed 5 times, dried and ^32P-PO4 content was quantitated by Cerenkov radiation.
These experiments determined whether signaling through β1-adrenergic receptor subtype could activate cardiac CaMKII. […]

ANF mRNA = assay: ANF message level by Northern analysis in neonatal cardiocytes; assay type: cell-based, rat
Protocol: FIG. 10 presents data showing the effects of adrenoceptor agonists on promoter-reporter activities for ANF, skeletal a-actin and cardiac a-actin, and a time course of effects of DOB on ANF message levels. FIGS. 10A, B, and C are bar graphs showing luciferase reporter levels after transfection of ANF, skeletal α-actin, and cardiac a-actin, respectively, into ventricular myocardial cells, and treatment, 24 hours after transfection, with PE (100 μM), DOB (10 μM), or TGF-β1 (1 ng/ml). Values are corrected for transfection efficiency and reported as the mean±SD from at least three experiments. FIG. 10D. Ventricular myocardial cells were switched to serum-free medium. […] 24 hours after incubation, total RNA was extracted and analyzed by Northern blot. […]
Northern Analysis. […] After washing at high stringency (0.1×SSPE, 0.1% SDS, 65° C.), hybridized biotinylated cDNA were detected by using Chemiluminescent Detection System (TROPIX, Inc., Bedford, Mass.) and then exposed to X-ray film. The ANF bands were quantitated with a Howteck gel scanner (PDI, Huntington station, N.Y.) and normalized to the 28 S rRNA signal to correct for loading and/or transfer efficiencies.
Primary cultures of neonatal cardiocytes were kept in serum-free medium and β1 agonist, DOB, was applied to the cells at various times. ANF message RNA was evaluated in the end by northern analysis protocols as described above. […]

[2] = system: skeletal α-actin promoter; assay: Skeletal α-actin promoter-reporter (luciferase) activity in transfected cardiomyocytes exposed to agonists; assay type: cell-based, rat
Protocol: as §1
Transient transfection. […] The optimal values including DNA concentration, lipofectamine concentration, and time length for tansfection were determined prior to experiments carried out in this study. […]
as §2

[3] = system: neonatal rat cardiomyocytes; assay: AngII- and PE-induced hypertrophy of primary cardiomyocytes (anti-α-actinin staining, cell size and sarcomeric assembly); assay type: cell-based; settings: 72 hr; AngII 10 nM or PE 10 μM
Protocol: A-F, Primary rat cardiocytes in serum-free medium were stimulated with AngII (10 nM) or PE (10 μm) for 72 hours. Cells were then fixed and stained with anti-α-actinin antibody to reveal sarcomeres and Hoechst stain to reveal nuclei.
To visualize primary cardiomyocytes and their sarcomeric organization, anti-α-actinin mouse monoclonal antibody was used (Sigma). […] Cells were washed in 1×phosphate-buffered saline (PBS), fixed in 3.7% paraformaldehyde for 5 minutes, washed three times with 1×PBS and then pre-blocked in 1×PBS containing 2% horse serum, 2% BSA, and 0.1% non-ionic detergent NP40 for 30 minutes. Anti-α-actinin antibody was added at a dilution of 1:800 in fresh preblock solution and incubated for an additional 30 minutes. Subsequently, the cells were washed three times in 1×PBS with 0.1% NP40. Anti-mouse TRITC-conjugated secondary antibody was then added at a dilution of 1:400 for 30 minutes in pre-block solution and the cells were again washed three times in 1×PBS containing 0.1% NP40. Nuclear staining for DNA was performed with 0.5 μg/ml of bisbenzimide in PBS for 15 minutes followed by three rinses with PBS.

[4] = DOB 10 μM, added 24 hours after transfection
[5] = PE exposure, construct includes PERE motif

C[C@H]1c2cccc(O)c2C(O)=C2C(=O)[C@]3(O)C(O)=C(C(N)=O)C(=O)[C@@H](N(C)C)[C@@H]3[C@@H](O)[C@@H]21 [doxcycline]
transactivation of the tTA-dependent target gene ([1]; 1 μg/ml after transfection, tTA-transfected cells): markedly repressed
low level expression of the target gene caused by the treatment itself ([1]; 1 μg/ml, 12 hour post-transfection): ~4 fold

CC(CCc1ccc(O)cc1)NCCc1ccc(O)c(O)c1 (stereo not drawn) [DOB, dobutamine]
decrease of ANF promoter-reporter activity (ANF promoter; [4]): approximately 50%
decrease of cardiac α-actin promoter-reporter activity (cardiac α-actin promoter; [4]): approximately 50%
CaMKII autonomous activation, increase over unstimulated heart tissues (CaM kinase II): ~170%
decline of ANF mRNA compared to control values (ANF mRNA; 24 hours after DOB exposure): 75%
abundance of ANF message relative to control cultures (ANF mRNA; within 16 hours of DOB exposure, serum-free medium): about half
decrease of skeletal α-actin promoter-reporter activity [2, 4]: approximately 50%

CC(C)NCC(O)COc1cccc2ccccc12 (stereo not drawn) [PROP, propanolol]
effect on DOB- or ISO-induced CaMKII autonomous activity (CaM kinase II; PROP 20 μM added prior to agonist): blocked activation

CC(C)NCC(O)c1ccc(O)c(O)c1 (stereo not drawn) [ISO, isoproterenol]
CaMKII autonomous activation, increase over unstimulated heart tissues (CaM kinase II): ~170%

TGF-β1: type β-transforming growth factor
induction of cardiac α-actin promoter-reporter activity over control cells (cardiac α-actin promoter): 700%

CNC[C@H](O)c1cccc(O)c1 [PE, phenylephrine]
transactivation of ANF reporter activity over control cells (ANF promoter; PE 100 μM): 200%
activation of ANF50 (NP338) nested deletion promoter-reporter construct (ANF promoter; PE exposure, construct has lost PERE motif): not
activation of ANF135 (NP325) nested deletion promoter-reporter construct (ANF promoter; [5]): activated
activation of ANF700 (NP337) nested deletion promoter-reporter construct (ANF promoter; [5]): activated
induction of cardiac α-actin promoter-reporter activity over control cells (cardiac α-actin promoter): not significantly stimulated
transactivation of skeletal α-actin reporter activity over control cells ([2]; PE 100 μM): 200%
cardiomyocyte size and sarcomeric assembly after exposure to agonist [3]: dramatic increase in size and sarcomeric assembly
